Patent publication US20060194268A1, “Method for measuring spinorphin” (priority 2005, published 2006)
No end group written: not given here.

What was measured:
[1] = system: spinorphin rabbit antibody; assay: Competitive enzyme immunoassay, cross reactivity of spinorphin analogues; type: binding; settings: for detection by the method of the present invention (reaction with spinorphin antibody): analogue as competitive compound for immobilized spinorphin; for IC50: competition with spinorphin immobilized on plate for spinorphin rabbit antibody; for Cross reactivity: ratio of spinorphin relative to IC50
in vitro = settings: bovine, cerebrospinal or other body fluid
Description: A test was carried out to confirm whether the activity of spinorphin could be retained through the period from the step (B) to the step (E). Spinorphin (1 μg/mL) in TBS was dissolved in bovine cerebrospinal fluid. The cerebrospinal fluid was allowed to stand at room temperature for various time periods. The reaction was stopped, and the amount of spinorphin was measured according to the method mentioned in the above (2).

| Substance | detection by the method of the present invention (reaction with spinorphin antibody) [1] | other results |
| --- | --- | --- |
| LVVYP [spinorphin analogue] | could not be detected |  |
| LVVYPW [spinorphin analogue] | could not be detected |  |
| LVVYPWT [Spinorphin, Leu-Val-Val-Tyr-Pro-Trp-Thr] |  | remaining at 1 h, 1 μg/mL (in vitro): 98.8 ± 0.98%; IC50 [1]: 0.00064 ± 0.00061 µg/mL; Cross reactivity [1]: 1 |
| Pro-Trp-Thr [PWT] | could not be detected |  |
| VVYP [spinorphin analogue] | could not be detected |  |
| VVYPW [tynorphin] | could not be detected |  |
| VVYPWT |  | IC50 [1]: 1.6 ± 5 µg/mL; Cross reactivity [1]: 0.0004 |
| VYP | could not be detected |  |
| VYPW [spinorphin analogue] | could not be detected |  |
| VYPWT |  | IC50 [1]: >10 µg/mL; Cross reactivity [1]: <6.4 × 10^−5 |
| YPW | could not be detected |  |
| YPWT [hemorphin-4] | could not be detected |  |
